≈ marks a conversion by molar mass, not a printed value. Read-outs that look alike come from different tables or passages of the source.
Legend:
[1] = Pharmacokinetic study, single oral dose in rats; format: in vivo
Method: (Pharmacology Experiment 5): Pharmacokinetic Study
Plasma sample obtained by centrifugation of blood (12000×g, for 5 minutes, at 4° C.) was measured to determine plasma concentration of the test compound using high performance liquid chromatography/mass spectrometry. Similarly, concentrations of standard solutions containing the test compound at known concentrations (0.001, 0.002, 0.005, 0.01, 0.02, 0.05, 0.1, 0.2, 0.5, 1, 2, and 5 μg/mL) were measured. And then, the plasma concentration (μg/mL) of the compound (1) was calculated from the prepared calibration curve to obtain the maximum plasma concentration (Cmax (μg/mL)) and the area under the plasma concentration-time curve (AUC (μg·hr/mL)). Measurement conditions can be appropriately adjusted by a person skilled in the art.

[2] = Photostability test according to ICH Q1B; format: physicochemical
Method: (Test Example 3) Photostability Test
The type I (Example 2), III (Example 3), V (Example 4), and VI (Example 5) crystals (each about 20 mg) of 1-((1R,2R)-2-hydroxy-4,4-dimethyl-1,2,3,4-tetrahydronaphthalen-1-yl)-3-(5-methyl-6-(2-methylpyrimidin-5-yl)-2-phenylpyridin-3-yl)urea obtained in the above Examples 2 to 5 were placed in a transparent plastic container and covered, and were subjected to photostability test according to the ICH Q1B (Guidelines on Photostability Testing of New Active Substances and Medicinal Products) described in Table 8 (Here, the photostability test samples were stored at about 25° C. under separate lamps which respectively emits visible light and UV-A light so that the total light exposure should be 1.2 million lux hours and 200 W hours/m^2 or more, respectively. A 5-day study should be designated as “0.5 ICH” and a 10-day study as “1 ICH”). […] After completion of the test, the retrieved sample was confirmed on the purity by high performance liquid chromatography and on the crystal form by powder X-ray diffraction analysis as in the Examples.

[3] = Determination of equilibrium solubility in phosphate buffer solution with pH 6.8; format: physicochemical; details: pH 6.8 phosphate buffer, mean value of three measurements
Source text: (Test Example 1) Determination of Equilibrium Solubility (Determination of Solubility in Phosphate Buffer Solution with pH 6.8)
Each of the equilibrium solubilities (solubility in phosphate buffer solution with pH 6.8) of Type I (Example 2), III (Example 3), V (Example 4) and VI crystals (Example 5) of 1-((1R,2R)-2-hydroxy-4,4-dimethyl-1,2,3,4-tetrahydronaphthalen-1-yl)-3-(5-methyl-6-(2-methylpyrimidin-5-yl)-2-phenylpyridin-3-yl)urea obtained in the above (Example 2) to (Example 5) was determined as follows:
Water was added a weighed potassium dihydrogen phosphate of 2.7 g to make 100 mL volume to prepare 0.2 mol/L potassium dihydrogen phosphate solution. Water was added a weighed disodium hydrogen phosphate […] of 7.2 g to make 100 mL volume to prepare 0.2 mol/L disodium hydrogen phosphate solution. A pH 6.8 phosphate buffer solution was prepared by diluting a mixture of 0.2 mol/L potassium dihydrogen phosphate solution (14.8 mL) and 0.2 mol/L disodium hydrogen phosphate solution (10.0 mL) with water (173.6 mL).
Approximately 1 mg of the each crystal from (Example 2) to (Example 5) was weighed into a screw tube, and a pH 6.8 phosphate buffer solution (1 mL) was added. An isothermal shaker (M-BR-022UP) was used to incubate the sample at 37° C. and 1000 rpm for 24 hours. 100 μL solution were sampled at 1, 2, 6, and 24 hours after the start of incubation, and were filtered using a centrifuge (HITACHI, Himac cF 9RX, at 25° C., at 1500 rpm, for 30 seconds) with a filter (Millipore: Multiscreen, MSSLBPC10) so as to remove insoluble materials. A 20 μL of the filtrate was quantified, and diluted with a solution (180 μL, pH 9.0) of 20 vol % tetrahydrofuran and 80 vol % ammonium bicarbonate aqueous solution (10 mM). A 10 μL of the prepared solution was quantified, and diluted with a solution (190 μL, pH 9.0) of 20 vol % tetrahydrofuran and 80 vol % ammonium bicarbonate aqueous solution (10 mM). The prepared solution was analyzed by ultra performance liquid chromatography (UPLC) under the following measurement conditions, and the concentration of the compound in the solution was calculated based on a previously prepared calibration curve. Three times of measurements were made for each example compound, and the mean values and standard deviations of the three measurements are shown as a result in Table 6.
<UPLC measurement conditions> Equipment: ACQUITY UPLC H-Class (Waters) Detector: PDA (200-500 nm) Column: BEH C18 2.1×50 mm Measurement wavelength: 270 nm Column temperature: 40° C. Injection amount: 10 μL Mobile phase: • Solvent A, acetonitrile; • Solvent B, 10 mM ammonium bicarbonate aqueous solution (pH 9.0) Gradient conditions: […]

Storage stability test = format: physicochemical; details: for Moisture absorption: during the storage period; for Chemical and physical stability over the test period: storage for 1 month, result in words
Method: For the stability test, approximately 20 mg of the test sample was stored at 25° C./60% RH or at 40° C./75% RH in open or closed condition for 1 month using a small environmental tester SH-641 (manufactured by Espec), and changes in purity and in crystalline form were observed.
For purity measurement, equipment of Waters ACQUITY UPLC H-Class (manufactured by Waters) and column of Waters ACQUITY BEH C18 (particle diameter […], size 2.1×50 mm) are used. For the mobile phase, 10 mmol/L ammonium bicarbonate buffer pH 9.0 and acetonitrile were used; and the test sample solution at 100 μg/mL in the mixture solvent of THF (tetrahydrofuran):10 mmol/L ammonium bicarbonate buffer (20:80) was prepared.
(Test Example 2) Storage Stability Test
The type I (Example 2), III (Example 3), V (Example 4) and VI (Example 5) crystals (each about 20 mg) of 1-((1R,2R)-2-hydroxy-4,4-dimethyl-1,2,3,4-tetrahydronaphthalen-1-yl)-3-(5-methyl-6-(2-methylpyrimidin-5-yl)-2-phenylpyridin-3-yl)urea obtained in the above Examples 2 to 5 were stored in glass bottles under the respective conditions described in Table 7. After completion of the storage period, the retrieved sample was confirmed on the purity by high performance liquid chromatography and on the crystal form by powder X-ray diffraction analysis as in the Examples.

[4] = Shielded from light by aluminum foil, 0.5 ICH
[5] = Shielded from light by aluminum foil, 1 ICH
[6] = Shielded from light by aluminum foil, Before the test
[7] = 25° C./60% RH, closed for 1 month
[8] = 25° C./60% RH, open for 1 month
[9] = 40° C./75% RH, closed for 1 month
[10] = 40° C./75% RH, open for 1 month
[11] = male Crl:CD (SD) rats, oral single dose 600 mg/kg in 0.5 w/v % methylcellulose 400

In the case of `Cc1ncc(-c2nc(-c3ccccc3)c(NC(=O)N[C@@H]3c4ccccc4C(C)(C)C[C@H]3O)cc2C)cn1` [Example 2, 1-((1R,2R)-2-hydroxy-4,4-dimethyl-1,2,3,4-tetrahydronaphthalen-1-yl)-3-(5-methyl-6-(2-methylpyrimidin-5-yl)-2-phenylpyridin-3-yl)urea], the AUC ([1]; male, Crl:CD (SD), rat, plasma, po, 600 mg/kg, oral single dose 600 mg/kg in 0.5 w/v % methylcellulose 400, read-out: Area Under Plasma Concentration (AUC)) is reported as 561 µg·h/mL, the Cmax ([1]; male, Crl:CD (SD), rat, plasma, po, 600 mg/kg, oral single dose 600 mg/kg in 0.5 w/v % methylcellulose 400, read-out: Maximum Plasma Concentration (Cmax)) is reported as 29700 ng/mL and the “Chemical purity (%)” value ([2]; Exposure, 0.5 ICH (5-day)) is reported as 99.2%. The “Crystalline form after completion of storage period” value (from here on “Crystalline form after completion”) ([2]; Exposure, 0.5 ICH (5-day)) was “Type I crystal”, the “Chemical purity (%)” value ([2]; Exposure, 1 ICH (10-day)) was 98.9% and the “Crystalline form after completion” value ([2]; Exposure, 1 ICH (10-day)) was “Type I crystal”. For the same molecule, the “Chemical purity (%)” value ([2]; Exposure, Before the test) was 99.8%, the “Crystalline form after completion” value ([2]; Exposure, Before the test) was “Type I crystal” and the “Chemical purity (%)” value [2, 4] was 99.8%. The “Crystalline form after completion” value [2, 4] was “Type I crystal”, the “Chemical purity (%)” value [2, 5] was 99.8% and the “Crystalline form after completion” value [2, 5] was “Type I crystal”. The “Chemical purity (%)” value [2, 6] was 99.8%, the “Crystalline form after completion” value [2, 6] was “Type I crystal” and the Stability against light ([2]; result in words, listed as type I crystal) was “stable against light”. For the same molecule, the Solubility ([3]; 37° C.) was 33.2 µg/mL (≈ 67.3 µM), the “Chemical purity (%)” value (Storage stability test; [7]) was 99.8% and the “Crystalline form after completion” value (Storage stability test; [7]) was “Type I crystal”. The “Chemical purity (%)” value (Storage stability test; [8]) was 99.8%, the “Crystalline form after completion” value (Storage stability test; [8]) was “Type I crystal” and the “Chemical purity (%)” value (Storage stability test; [9]) was 99.8%. For the same molecule, the “Crystalline form after completion” value (Storage stability test; [9]) was “Type I crystal”, the “Chemical purity (%)” value (Storage stability test; [10]) was 99.8% and the “Crystalline form after completion” value (Storage stability test; [10]) was “Type I crystal”. The “Chemical purity (%)” value (Storage stability test; Before the test) was 99.8%, the “Crystalline form after completion” value (Storage stability test; Before the test) was “Type I crystal” and the Moisture absorption (Storage stability test) was “no moisture absorption was observed”. The “Chemical and physical stability over the test period” value (Storage stability test) was “chemically and physically stable”.
With `Cc1ncc(-c2nc(-c3ccccc3)c(NC(=O)N[C@@H]3c4ccccc4C(C)(C)C[C@H]3O)cc2C)cn1` [Example 4, 1-((1R,2R)-2-hydroxy-4,4-dimethyl-1,2,3,4-tetrahydronaphthalen-1-yl)-3-(5-methyl-6-(2-methylpyrimidin-5-yl)-2-phenylpyridin-3-yl)urea] the “Area Under Plasma Concentration (AUC)” value [1, 11] was 473 µg·h/mL, the “Maximum Plasma Concentration (Cmax)” value [1, 11] was 26900 ng/mL and the “Chemical purity (%)” value ([2]; Exposure, 0.5 ICH (5-day)) was 99.8%. For the same molecule, the “Crystalline form after completion” value ([2]; Exposure, 0.5 ICH (5-day)) was “Type V crystal”, the “Chemical purity (%)” value ([2]; Exposure, 1 ICH (10-day)) was 99.8% and the “Crystalline form after completion” value ([2]; Exposure, 1 ICH (10-day)) was “Type V crystal”. For the same molecule, the “Chemical purity (%)” value ([2]; Exposure, Before the test) was 99.9%, the “Crystalline form after completion” value ([2]; Exposure, Before the test) was “Type V crystal” and the “Chemical purity (%)” value [2, 4] was 99.9%. For the same molecule, the “Crystalline form after completion” value [2, 4] was “Type V crystal”, the “Chemical purity (%)” value [2, 5] was 99.9% and the “Crystalline form after completion” value [2, 5] was “Type V crystal”. The “Chemical purity (%)” value [2, 6] was 99.9%, the “Crystalline form after completion” value [2, 6] was “Type V crystal” and the Stability against light ([2]; result in words, listed as type V crystal) was “stable against light”. For the same molecule, the Solubility ([3]; 37° C.) was 60.1 µg/mL (≈ 122 µM), the “Chemical purity (%)” value (Storage stability test; [7]) was 99.8% and the “Crystalline form after completion” value (Storage stability test; [7]) was “Type V crystal”. The “Chemical purity (%)” value (Storage stability test; [8]) was 99.8%, the “Crystalline form after completion” value (Storage stability test; [8]) was “Type V crystal” and the “Chemical purity (%)” value (Storage stability test; [9]) was 99.8%. The “Crystalline form after completion” value (Storage stability test; [9]) was “Type V crystal”, the “Chemical purity (%)” value (Storage stability test; [10]) was 99.8% and the “Crystalline form after completion” value (Storage stability test; [10]) was “Type V crystal”. For the same molecule, the “Chemical purity (%)” value (Storage stability test; Before the test) was 99.8%, the “Crystalline form after completion” value (Storage stability test; Before the test) was “Type V crystal” and the Moisture absorption (Storage stability test) was “no moisture absorption was observed”. The “Chemical and physical stability over the test period” value (Storage stability test) was “chemically and physically stable”.
With `Cc1ncc(-c2nc(-c3ccccc3)c(NC(=O)N[C@@H]3c4ccccc4C(C)(C)C[C@H]3O)cc2C)cn1` [Example 5, 1-((1R,2R)-2-hydroxy-4,4-dimethyl-1,2,3,4-tetrahydronaphthalen-1-yl)-3-(5-methyl-6-(2-methylpyrimidin-5-yl)-2-phenylpyridin-3-yl)urea] the “Chemical purity (%)” value ([2]; Exposure, 0.5 ICH (5-day)) was 99.7%, the “Crystalline form after completion” value ([2]; Exposure, 0.5 ICH (5-day)) was “Type I crystal” and the “Chemical purity (%)” value ([2]; Exposure, 1 ICH (10-day)) was 99.5%. For the same molecule, the “Crystalline form after completion” value ([2]; Exposure, 1 ICH (10-day)) was “Type I crystal”, the “Chemical purity (%)” value ([2]; Exposure, Before the test) was 99.8% and the “Crystalline form after completion” value ([2]; Exposure, Before the test) was “Type I crystal”. The “Chemical purity (%)” value [2, 4] was 99.8%, the “Crystalline form after completion” value [2, 4] was “Type I crystal” and the “Chemical purity (%)” value [2, 5] was 99.8%. The “Crystalline form after completion” value [2, 5] was “Type I crystal”, the “Chemical purity (%)” value [2, 6] was 99.8% and the “Crystalline form after completion” value [2, 6] was “Type VI crystal”. For the same molecule, the “Crystal form change during photostability tests” value ([2]; result in words) was “transferred to the type I crystal”, the Stability against light ([2]; result in words, listed as type VI crystal) was “unstable against light” and the Solubility ([3]; phosphate buffer solution pH 6.8, 37 °C, pH 6.8, aqueous buffer, thermodynamic from solid, read-out: Solubility) was 41.1 µg/mL (≈ 83.3 µM). The “Chemical purity (%)” value (Storage stability test; [7]) was 99.9%, the “Crystalline form after completion” value (Storage stability test; [7]) was “Type VI crystal” and the “Chemical purity (%)” value (Storage stability test; [8]) was 99.9%. The “Crystalline form after completion” value (Storage stability test; [8]) was “Type VI crystal”, the “Chemical purity (%)” value (Storage stability test; [9]) was 99.9% and the “Crystalline form after completion” value (Storage stability test; [9]) was “Type VI crystal”. For the same molecule, the “Chemical purity (%)” value (Storage stability test; [10]) was 99.9%, the “Crystalline form after completion” value (Storage stability test; [10]) was “Type VI crystal” and the “Chemical purity (%)” value (Storage stability test; Before the test) was 99.8%. For the same molecule, the “Crystalline form after completion” value (Storage stability test; Before the test) was “Type VI crystal” and the “Crystal form change during storage” value (Storage stability test; storage (open system)) was “transferred to the type I crystal”.
